Laboratory results as given in PMC4481167, “The primary pathway for lactate oxidation in Desulfovibrio vulgaris” (Frontiers in Microbiology, 2015).

Biological target: T1, PFOR (DVU3025, por) (Nitratidesulfovibrio vulgaris, UniProt Q726T1)
T1 construct: native, untagged; in-gel activity band from crude extract identified by LC-MS/MS; homo-octamer (cited)
Test: in-gel activity stain (methyl viologen), band identified by LC-MS/MS
Assay type: biochemical
Settings: 20 mM pyruvate, 0.1 mM CoA, 2 mM methyl viologen, 16 mM dithioerythritol, 50 mM Tris-HCl pH 8.5, anaerobic

T1 sequence (Q726T1 1-1215): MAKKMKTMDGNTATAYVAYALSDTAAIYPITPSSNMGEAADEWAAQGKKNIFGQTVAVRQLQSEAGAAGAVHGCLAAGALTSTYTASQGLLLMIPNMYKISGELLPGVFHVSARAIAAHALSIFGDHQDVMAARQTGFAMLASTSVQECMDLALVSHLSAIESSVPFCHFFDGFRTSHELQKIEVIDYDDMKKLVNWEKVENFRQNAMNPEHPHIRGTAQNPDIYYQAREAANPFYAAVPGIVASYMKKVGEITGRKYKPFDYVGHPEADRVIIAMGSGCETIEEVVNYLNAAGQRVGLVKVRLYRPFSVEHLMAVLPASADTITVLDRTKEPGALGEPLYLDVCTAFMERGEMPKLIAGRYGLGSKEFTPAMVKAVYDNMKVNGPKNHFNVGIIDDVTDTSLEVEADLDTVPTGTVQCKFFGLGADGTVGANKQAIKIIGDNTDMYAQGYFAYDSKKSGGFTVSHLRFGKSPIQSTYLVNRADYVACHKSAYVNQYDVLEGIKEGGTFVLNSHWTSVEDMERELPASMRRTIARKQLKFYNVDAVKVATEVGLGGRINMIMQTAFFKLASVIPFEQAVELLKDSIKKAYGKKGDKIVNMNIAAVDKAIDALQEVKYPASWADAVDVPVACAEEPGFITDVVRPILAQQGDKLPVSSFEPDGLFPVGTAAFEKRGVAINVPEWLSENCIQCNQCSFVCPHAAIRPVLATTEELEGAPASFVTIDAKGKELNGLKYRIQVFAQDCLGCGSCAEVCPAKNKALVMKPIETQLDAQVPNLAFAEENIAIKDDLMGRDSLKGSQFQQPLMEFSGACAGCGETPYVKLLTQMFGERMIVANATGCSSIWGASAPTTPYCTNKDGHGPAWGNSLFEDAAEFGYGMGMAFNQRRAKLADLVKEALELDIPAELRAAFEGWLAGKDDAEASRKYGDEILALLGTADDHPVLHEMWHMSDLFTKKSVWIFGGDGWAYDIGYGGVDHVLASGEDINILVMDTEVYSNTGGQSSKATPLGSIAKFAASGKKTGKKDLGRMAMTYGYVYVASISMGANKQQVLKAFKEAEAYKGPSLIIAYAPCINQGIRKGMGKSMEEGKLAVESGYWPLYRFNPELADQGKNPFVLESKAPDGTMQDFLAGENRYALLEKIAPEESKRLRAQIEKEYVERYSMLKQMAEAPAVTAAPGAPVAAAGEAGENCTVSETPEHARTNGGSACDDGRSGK

Row | Compound | in-gel activity stain (methyl viologen), band identified by LC-MS/MS
1 | CC(C)(COP(=O)(O)OP(=O)(O)OC[C@H]1O[C@@H](n2cnc3c(N)ncnc32)[C@H](O)[C@@H]1OP(=O)(O)O)[C@@H](O)C(=O)NCCC(=O)NCCS [CoA] | Two bands were stained with methyl viologen in the presence of pyruvate and CoA
2 | CC(=O)C(=O)O [pyruvate] | Two bands were stained with methyl viologen in the presence of pyruvate and CoA
